# Assay results reported in patent US9249085B2, “Aniline derivatives, their preparation and their therapeutic application” (FOVEA PHARMACEUTICALS, priority 2011, dated 2016).
# What was measured:
# [1] = target: recombinant human prostanoid EP2 receptor (Homo sapiens (Human), UniProt P43116); experiment: Human prostanoid EP2 receptor cellular functional assay (cAMP, HTRF); type: cell-based; conditions: for EC50: CHO cells expressing recombinant human EP2, cAMP by HTRF, 30 min, 37° C., read-out: In vitro functional assay EP2 (h) EC50; for In vitro functional assay EP2 (h) % response: percent of control specific agonist response (10 μM PGE2)
# Description: Test 1.2: Human Prostanoid EP2 Receptor Cellular Functional Assay
# […] CHO cells expressing the recombinant human prostanoid EP2 receptor were suspended in assay medium (HBSS buffer (Invitrogen) containing 20 mM HEPES (pH7.4) and 500 μM isobutyl-methylxanthine IBMX) and plated out to yield approximately 1×10^4 cells/well in a 96-well. Following this, cells were incubated with agonists for 30 min in the presence of the test compounds. For stimulated control measurements, separate assay wells contain 10 μM PGE2 (control specific agonist). All incubations were carried out at 37° C. in a 5% CO2 atmosphere. Following incubation, the amount of cAMP in each well was determined by HTRF method. The cells are lysed and the fluorescence acceptor (D2-labeled cAMP) and fluorescence donor (anti-cAMP antibody labeled with europium cryptate) are added. After 60 min at room temperature, the fluorescence transfer is measured at λ ex=337 nm and λ em=620 and 665 nm using a microplate reader (Rubystar, BMG).
# The cAMP concentration is determined by dividing the signal measured at 665 nm by that measured at 620 nm (ratio).
# The standard reference agonist PGE2 was tested at several concentrations to generate a concentration-response curve to determined EC50.
# (§1) Analysis and Expression of Results
# The results are expressed as a percent of control specific agonist response ((measured specific response/control specific agonist response)×100) obtained in the presence of the test compounds. The EC50 values (concentration producing a half-maximal specific response) were determined by non-linear regression analysis of the concentration-response curves generated with mean replicate values using Hill equation curve fitting (Y=D+[(A−D)/(1+(C/C50)nH)], where Y=specific response, D=minimum specific response, A=maximum specific response, C=compound concentration, and C50=EC50 and nH=slope factor). This analysis was performed using a software developed at Cerep (Hill software) and validated by comparison with data generated by the commercial software SigmaPlot® 4.0 for Windows® (© 1997 by SPSS Inc.).
# [2] = target: recombinant human prostanoid EP4 receptor (Homo sapiens (Human), UniProt P35408); experiment: Human prostanoid EP4 receptor binding assay ([3H]PGE2 displacement); conditions: HEK-293(T) membranes, 0.5 nM [3H]PGE2, 120 min at 22° C.; NC: not calculable; read-out: In vitro potency EP4 (h) IC50
# Description: Test 1.1: Human Prostanoid EP4 Receptor Binding Assay
# Cell membrane homogenate from Human embryonic kidney HEK-293(T) cells expressing recombinant human prostanoid EP4 receptor was used to perform Prostanoid receptor radioligand binding assays.
# The competition reaction was initiated by incubation of membrane protein homogenate (20 μg protein) for 120 min at 22° C. with 0.5 nM [^3H]PGE2 ligand in the absence or presence of the test compound in a buffer containing 10 mM MES/KOH (pH 6.0), 10 mM MgCl2 and 1 mM EDTA.
# Non-specific binding was determined in the presence of 10 μM PGE2 (the corresponding non-radioactive prostanoid). Affinity of the compound binding to hEP4 receptor was measured by displacement of the radiolabeled ligand in the presence of varying doses of tested compound.
# Incubations were terminated by rapid filtration under vacuum through glass fiber filters (GF/B, Packard) presoaked with 0.3% PEI and washed several times with ice-cold 50 mM Tris-HCl using a 96-sample cell harvester (Unifilter, Packard).
# The filters were dried and the residual radioactivity bound to the individual filters determined with addition of scintillation cocktail (Microscint 0, Packard) by a scintillation counter (Topcount, Packard).
# The results were expressed as a percent inhibition of the control radioligand specific binding.
# The standard reference compound PGE2, was tested in at several concentrations to obtain a competition curve to determined IC50.
# as §1
# The specific ligand binding to the receptors is defined as the difference between the total binding and the nonspecific binding determined in the presence of an excess of unlabelled ligand. The results are expressed as a percent of control specific binding ((measured specific binding/control specific binding)×100) obtained in the presence of the test compounds. The IC50 values (concentration causing a half-maximal inhibition of control specific binding) and Hill coefficients (nH) were determined by non-linear regression analysis of the competition curves generated with mean replicate values using Hill equation curve fitting (Y=D+[(A−D)/(1+(C/C50)nH)], where Y=specific binding, D=minimum specific binding, A=maximum specific binding, C=compound concentration, C50=IC50, and nH=slope factor). This analysis was performed using a software developed at Cerep (Hill software) and validated by comparison with data generated by the commercial software SigmaPlot® 4.0 for Windows® (© 1997 by SPSS Inc.). The inhibition constants (Ki) were calculated using the Cheng Prusoff equation (Ki=IC50/(1+(L/KD)), where L=concentration of radioligand in the assay, and KD=affinity of the radioligand for the receptor). A scatchard plot is used to determine the Kd.
# Chain of recombinant human prostanoid EP4 receptor (P35408 whole entry): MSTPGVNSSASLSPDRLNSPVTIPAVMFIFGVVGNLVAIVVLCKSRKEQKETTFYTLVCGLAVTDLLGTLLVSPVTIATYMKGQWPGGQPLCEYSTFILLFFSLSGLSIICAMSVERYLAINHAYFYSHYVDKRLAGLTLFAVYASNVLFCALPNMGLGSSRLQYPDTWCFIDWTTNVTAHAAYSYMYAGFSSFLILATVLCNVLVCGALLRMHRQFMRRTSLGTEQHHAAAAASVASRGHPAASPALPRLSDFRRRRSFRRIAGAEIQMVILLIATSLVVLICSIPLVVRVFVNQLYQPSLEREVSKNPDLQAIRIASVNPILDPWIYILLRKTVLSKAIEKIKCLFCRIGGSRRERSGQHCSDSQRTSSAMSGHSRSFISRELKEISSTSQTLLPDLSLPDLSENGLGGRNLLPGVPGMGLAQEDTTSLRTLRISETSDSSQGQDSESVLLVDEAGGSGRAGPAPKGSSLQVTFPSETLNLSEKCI
# Chain of recombinant human prostanoid EP2 receptor (P43116 whole entry): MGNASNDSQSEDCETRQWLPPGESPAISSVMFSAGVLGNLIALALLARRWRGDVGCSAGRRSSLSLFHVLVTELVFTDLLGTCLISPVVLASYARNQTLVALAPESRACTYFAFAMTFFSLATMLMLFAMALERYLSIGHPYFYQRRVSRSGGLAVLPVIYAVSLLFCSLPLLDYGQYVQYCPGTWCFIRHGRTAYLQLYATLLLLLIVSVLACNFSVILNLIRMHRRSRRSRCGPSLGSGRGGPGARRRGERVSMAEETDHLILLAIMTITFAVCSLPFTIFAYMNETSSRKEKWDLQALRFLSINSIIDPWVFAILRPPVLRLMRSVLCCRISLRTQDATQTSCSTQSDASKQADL
EC50 [1] [nM],In vitro functional assay EP2 (h) % response [1] [%],IC50 [2] [nM],Structure (SMILES)
3,80,> 300,"Cc1ccc(OCC(=O)O)c(C)c1NCc1cc(-c2cccc(F)c2)cc(F)c1C [I(aw), 2-[3-[[3-fluoro-5-(3-fluorophenyl)-2-methyl-phenyl]methylamino]-2,4-dimethyl-phenoxy]acetic acid]"
< 1,85,> 300,"Cc1cc(-c2cccc(F)c2)cc(CNc2c(C)ccc(OCC(=O)O)c2C)c1F [I(ag), 2-[3-[[2-fluoro-5-(3-fluorophenyl)-3-methyl-phenyl]methylamino]-2,4-dimethyl-phenoxy]acetic acid]"
0.9,70,> 300,"COc1c(C)cc(-c2cccc(F)c2)cc1CNc1c(C)ccc(OCC(=O)O)c1C [I(al), 2-[3-[[5-(3-fluorophenyl)-2-methoxy-3-methyl-phenyl]methylamino]-2,4-dimethyl-phenoxy]acetic acid]"
2,101,> 300,"Cc1cc(-c2cccc(F)c2)cc(CNc2c(F)ccc(OCC(=O)O)c2C)c1F [I(ad), 2-[4-fluoro-3-[[2-fluoro-5-(3-fluorophenyl)-3-methyl-phenyl]methylamino]-2-methyl-phenoxy]acetic acid]"
3,97,> 300,"Cc1c(F)cc(-c2cccc(F)c2)cc1CNc1c(F)ccc(OCC(=O)O)c1F [I(aa), 2-[2,4-difluoro-3-[[3-fluoro-5-(3-fluorophenyl)-2-methylphenyl]methylamino]phenoxy]acetic acid]"
45,78,> 300,"O=C(O)COc1ccc(Cl)c(NCc2cc(-c3cccc(F)c3)ccc2F)c1Cl [I(r), 2-[2,4-Dichloro-3-[[2-fluoro-5-(3-fluorophenyl)phenyl]methylamino]phenoxy]acetic acid]"
50,105,–,"Cc1cc(OCC(=O)O)c(F)c(NCc2cc(-c3cccc(F)c3)ccc2F)c1F [I(ab), 2-[2,4-difluoro-3-[[2-fluoro-5-(3-fluorophenyl)phenyl]methylamino]-5-methyl-phenoxy]acetic acid]"
5,70,–,"COc1c(C)cc(-c2cccc(F)c2)cc1CNc1c(F)ccc(OCC(=O)O)c1C [I(af), 2-[4-fluoro-3-[[5-(3-fluorophenyl)-2-methoxy-3-methyl-phenyl]methylamino]-2-methyl-phenoxy]acetic acid]"
28,82,–,"O=C(O)COc1ccc(F)c(NCc2cc(-c3cccc(F)c3)ccc2F)c1F [I(b), 2-[2,4-Difluoro-3-[[2-fluoro-5-(3-fluorophenyl)phenyl]methylamino]phenoxy]acetic acid]"
18,124,–,"C[C@@H](Nc1c(F)ccc(OCC(=O)O)c1F)c1cc(-c2cccc(F)c2)ccc1F (single isomer, unassigned) [I(as) (+ isomer)]"
2,113,> 300,"Cc1cc(-c2cccc(F)c2)cc(CNc2c(C)ccc(OCC(=O)O)c2C)c1C [I(ak), 2-[3-[[5-(3-fluorophenyl)-2,3-dimethyl-phenyl]methylamino]-2,4-dimethyl-phenoxy]acetic acid]"
6,91,> 300,"Cc1cc(-c2cccc(F)c2)cc(CNc2c(F)ccc(OCC(=O)O)c2C)c1C [I(at), 2-[4-fluoro-3-[[5-(3-fluorophenyl)-2,3-dimethyl-phenyl]methylamino]-2-methyl-phenoxy]acetic acid]"
9,91,–,"N#Cc1c(OCC(=O)O)ccc(F)c1NCc1cc(-c2cccc(F)c2)ccc1F [I(an), 2-[2-cyano-4-fluoro-3-[[2-fluoro-5-(3-fluorophenyl)phenyl]methylamino]phenoxy]acetic acid]"
2,85,–,"Cc1cc(-c2cccc(F)c2)cc(CNc2c(F)ccc(OCC(=O)O)c2F)c1C [I(v), 2-[2,4-Difluoro-3-[[5-(3-fluorophenyl)-2,3-dimethyl-phenyl]methylamino]phenoxy]acetic acid]"
46,72,–,"O=C(O)COc1cccc(CN(Cc2ccc(-n3cccn3)cc2)S(=O)(=O)c2cccnc2)c1 [CP-544326, reference compound]"
3,83,–,"Cc1cc(CNc2c(F)ccc(OCC(=O)O)c2C)cc(-c2cccc(F)c2)c1 [I(ae), 2-[4-fluoro-3-[[3-(3-fluorophenyl)-5-methyl-phenyl]methylamino]-2-methyl-phenoxy]acetic acid]"
8,74,–,"Cc1c(OCC(=O)O)ccc(F)c1NCc1cc(O)cc(-c2cccc(F)c2)c1 [I(ah), 2-[4-fluoro-3-[[3-(3-fluorophenyl)-5-hydroxy-phenyl]methylamino]-2-methyl-phenoxy]acetic acid]"
69,66,–,"Cc1ccc(-c2cccc(F)c2)cc1CNc1c(F)ccc(OCC(=O)O)c1F [I(c), 2-[2,4-Difluoro-3-[[5-(3-fluorophenyl)-2-methyl-phenyl]methylamino]phenoxy]acetic acid]"
17,73,–,"COc1c(C)cc(-c2cccc(F)c2)cc1CNc1c(F)ccc(OCC(=O)O)c1F [I(t), 2-[2,4-Difluoro-3-[[5-(3-fluorophenyl)-2-methoxy-3-methyl-phenyl]methylamino]phenoxy]acetic acid]"
99,73,–,"Cc1ccc(OCC(=O)O)c(F)c1NCc1cc(-c2cccc(F)c2)ccc1F [I(i), 2-[2-Fluoro-3-[[2-fluoro-5-(3-fluorophenyl)phenyl]methylamino]-4-methyl-phenoxy]acetic acid]"
73,77,> 300,"O=C(O)COc1ccc(Cl)c(NCc2cc(-c3cccc(F)c3)ccc2F)c1F [I(k), 2-[4-Chloro-2-fluoro-3-[[2-fluoro-5-(3-fluorophenyl)phenyl]methylamino]phenoxy]acetic acid]"
